Test results: US7109173B1, “Transport of nucleotides, oligonucleotides and polynucleotides into the cytoplasm and nucleus of cells by peptides” (priority 2004, dated 2006)

Experiments:
Assay type in all cases: cell-based
human fibroblasts = assay: Uptake of polynucleotides in the presence and absence of peptides by human fibroblasts, spectrophotometric; set-up: Absorbance, Peptides / Absorbance, Without Peptides: dose or concentration left out as unconfirmed; conditions: 24 hrs minus zero time values; for μ grams, Peptides / Absorbance, Peptides: with peptides; for Absorbance, Peptides / Absorbance, Without Peptides: absorbance at 260 nm, ± standard deviation
Experimental: 1. Analysis of control cells stopped at zero time gives the original content of nucleotides of interest.
2. Analysis of control cells stopped after 24 hour incubation gives the change in nucleotide content during the 24 hr period. That is, 24 hr content of control cells minus zero time control cells nucleotide content equals net change.
3. Analysis of nucleotide treated cells at zero time incubation gives the initial content and/or bound nucleotides.
4. Analysis of nucleotide treated cells at 24 hour time gives the amount present after 24 hours.
5. 24 hour content minus zero time content gives the net change in nucleotide content.
6. The net content of the 24 hr nucleotide treated cells minus the zero time content of nucleotides gives the amount transported by the peptides.
7. The net values are previously corrected for the amount in the original media and wash for the treated cells.
(§1) Fibroblasts cells were incubated for 24 hrs with and without fetal calf serum. Cells harvested at zero time served as controls. They were subjected to all of the analyses performed on experimental cells. Cells were harvested as described in ‘section V. Methods and Materials’. Macrophages were treated the same as previously described for fibroblasts except human serum was used in place of fetal calf serum and they were not cultured without serum. Cells were incubated with predetermined amounts of nucleotides with and without peptide Incubations were stopped at zero time and 24 hrs. The media harvested at zero and 24 hrs was saved for analysis for peptides and nucleotides. Cells were washed and harvested as described previously. The wash was saved for analysis of peptides and nucleotides. Some cells were sonicated and aliquots analyzed for radioactivity by a liquid scintillation spectrometer (counter). […] Spectrophotometric analysis quantifies the amount of nucleotide retained. VI: Extraction of lipids—The non-saponifiable lipids and free fatty acids were extracted using petroleum ether (30–60° C.). Neutral lipids were extracted with petroleum ether without prior saponification. […] The latter two methods, when used, necessitate extensive chromatographic separation of mevalonate from the phospholipids and neutral lipids. […] Control experiments in which the reaction was stopped at zero time and in which the enzyme preparation is omitted show no radioactivity is extracted when the usual incubation, saponification, and isolation procedures were performed.
(§2) a) Isolating the peptides then b) incubating the peptide sample with predetermined amounts of nucleotides with and without peptides. After this, the nucleotides are transferred into the cells. Cells were treated with homopolymers in the presence and absence of the peptides. Uptake was determined as described under Methods and Materials, above. The polynucleotides were quantified spectrophotometrically and by single cell fluorescence analysis using syto-13 (Molecular Probes).
The cells were cultured as described under Methods, above. The experiments were stopped at zero time and 24 hours. Values are obtained by subtracting initial zero time values from those of 24 hrs. Values are ±standard deviation. Absorbance measured spectrophotometrically at […].

cells = assay: Determination of cellular loci of administered polynucleotides by differential centrifugation; set-up: Absorbance, Nuclear Fraction / Absorbance, Microsomal Fraction: dose or concentration left out as unconfirmed; conditions: for μ grams, Microsomal Fraction / μ grams, Nuclear Fraction: calculated after subtracting zero time control values from experimental values; for Absorbance, Microsomal Fraction / Absorbance, Nuclear Fraction: observed values, absorbance at 260 nm
Experimental: as §1
Cells were cultured and treated as described under Methods, above. Cells were subjected to differential centrifugation. μ grams calculated after correction of values by subtracting zero time control values from experimental values. No significant absorbances of nucleotides were detected in the experimental samples in the mitochondrial-lysosomal fraction when zero time control values were subtracted from the experimental values. Absorbance was measured spectrophotometrically at […]. […] In a preferred embodiment of this invention, the target cells are smooth muscle cells and macrophages which are found in atheromatous plaques. The plaques are a focal thickening of the intima caused by proliferation of smooth muscle cells.

Fibroblasts = assay: Uptake of homopolymers by fibroblasts, single cell fluorescence analysis with syto-13; conditions: fibroblasts stained with syto-13, relative intensity ± standard deviation, n = number of cells
Experimental: as §1, §2
Fibroblasts were cultured as described under V.Methods and Materials. Cells were stained with syto-13 (Molecular Probes). Single cell fluorescence analysis was performed using a Zeiss microsope photometer. Values are relative intensity ±standard deviation. N=number of cells.

Substance	μ grams, Peptides (human fibroblasts) [μ grams]	Absorbance, Peptides (human fibroblasts)	μ grams, Without Peptides (human fibroblasts) [μ grams]	Absorbance, Without Peptides (human fibroblasts)	μ grams, Microsomal Fraction (cells) [μ grams]	Absorbance, Microsomal Fraction (cells)	μ grams, Nuclear Fraction (cells) [μ grams]	Absorbance, Nuclear Fraction (cells)	Fluorescence Relative Intensity, Control (Fibroblasts)	Fluorescence Relative Intensity, Experimental (Fibroblasts)
Polyadenylic acid	252	0.200 ± 0.101	59	0.047 ± 0.025	155	0.242 ± 0.038	59.1	0.265 ± 0.061	11.7 ± 3.8 (n = 22)	27.4 ± 7.5 (n = 23)
Polyguanylic acid	1160	0.444 ± 0.058	580	0.223 ± 0.084			747.7	0.354 ± 0.030	13.1 ± 3.1 (n = 24)	39.2 ± 9.5 (n = 17)
Polycytidylic acid	380	0.209 ± 0.028	94	0.052 ± 0.031	153	0.236 ± 0.025	107.4	0.254 ± 0.026	3.3 ± 0.6 (n = 14)	14.9 ± 1.6 (n = 14)
Polyuridylic acid	436	0.370 ± 0.07	82	0.071 ± 0.013	186	0.313 ± 0.030	246.1	0.326 ± 0.050	4.4 ± 1.3 (n = 22)	16.8 ± 4.6 (n = 23)
